In brackets after ≈: the same amount, converted by molar mass. Read-outs that look alike come from different tables or passages of the source.
Experiments:
[1] = test system: Gram-positive bacteria; format: cell-based; conditions: for antibiotic activity (in words): relative to (−)-himastatin (1) where a derivative
Procedure: (§1) Bacillus subtilis subsp. spizizenii (ATCC 6633) and Streptomyces himastatinicus (ATCC 53653) were obtained from the American Type Culture Collection (ATCC). Methicillin-resistant and methicillin-susceptible Staphylococcus aureus (Newman), and vancomycin-resistant (V583) and vancomycin-susceptible (T7) Enterococcus faecalis were obtained from the lab of Dr. Roby P. Bhattacharyya (Massachusetts General Hospital).^6 B. subtilis was grown in brain-heart infusion (BHI) medium at 37° C., S. himastatinicus was grown in tryptone-yeast extract broth (ISP medium 2) at 28° C., E. faecalis was grown in Todd-Hewitt broth, and all other organisms were grown in lysogeny broth (LB) medium at 37° C.
(§2) Minimum inhibitory concentration (MIC) was determined using the broth microdilution method. 20-fold stocks of compound in DMSO were diluted 10-fold in MHB medium and 100 μL of each were added to the first well of a 96-well plate. 50 μL of the first well was then serially diluted through 50 μL MHB medium in wells 2-11. To prepare the bacterial culture, an overnight culture was diluted in MHB until the turbidity matched that of McFarland standard 0.5. Then, the culture was diluted 1:100 and added to wells 1-11, resulting in 2-fold dilutions of antibiotic beginning at 64 μg/mL and a final inoculum of 5×10^5 cfu/mL. 100 μL of MHB medium was added to well 12 as a sterility control, and a row containing no antibiotic was used as a growth control. The plate was incubated at the organism's respective growth temperature overnight (B. subtilis) or 72 h (S. himastatinicus) and the MIC was determined using OD600.
(§3) Minimum inhibitory concentration (MIC) was determined using the broth microdilution method.^7 20-fold (1.28 mg/mL) stocks of compound in dimethylsulfoxide, stored as frozen (−80° C.) 30-μL aliquots, were diluted 10-fold in Mueller Hinton broth (MHB) and a 100-μL sample of each was added to the first well of a 96-well plate. A 50-μL sample of the first well was then serially diluted two-fold through 50-μL NMB medium in wells 2-11. A bacterial culture was prepared from a frozen (−80° C.) stock in the organism's respective growth medium and grown overnight. The culture was then diluted in MHB until the turbidity matched that of McFarland standard 0.5 by measuring the optical density at 600 nm (1×10^8 cfu/mL). Then, the culture was diluted 1:100 and a 50-μL aliquot was added to wells 1-11, resulting in 2-fold dilutions of antibiotic from 64 μg/mL down to 0.0625 μg/mL and a final inoculum of 5×10^5 cfu/mL. A 100-μL aliquot of MHB medium was added to well 12 as a sterility control, and a row containing no antibiotic was used as a growth control. The plate was incubated at the organism's respective growth temperature overnight or 72 h (S. himastatinicus). The MIC was determined by observing the well density by eye and, with the exception of S. himastatinicus which grows in solid colonies in media, was confirmed by measuring the optical density of each well at 600 nm. At least two assays were conducted for each organism on identical lots of compound. No degradation of compound stocks in dimethylsulfoxide was observed by LC-MS analysis after being subjected to multiple freeze-thaw cycles.

[2] = test system: Streptomyces himastatinicus (ATCC 53653); format: cell-based
Procedure: as §1, §2, §3

[3] = test system: Bacillus subtilis (ATCC 6633); format: cell-based
Procedure: as §1, §2, §3

[4] = test system: Vancomycin-Resistant Enterococcus faecalis (V583); format: cell-based
Procedure: as §1, §2, §3

[5] = test system: Methicillin-Resistant Staphylococcus aureus; format: cell-based
Procedure: as §1, §2, §3

[6] = test system: Methicillin-Sensitive S. aureus (Newman); format: cell-based, Staphylococcus aureus
Procedure: as §1, §2, §3

[7] = test system: Vancomycin-Sensitive E. faecalis (T7); format: cell-based, Enterococcus faecalis
Procedure: as §1, §2, §3

[8] = test system: B. subtilis (ATCC 6633); assay: Microscopy of membrane morphology at sub-lethal concentration, FM 4-64 stain; format: cell-based, Bacillus subtilis; conditions: sub-lethal concentration 0.25 μg/mL, 3 h at 37 °C
Procedure: B. subtilis (ATCC 6633) was used for all microscopy experiments. For time-course studies at lethal concentration, culture containing 1 μg/mL FM 4-64 was combined with medium containing himastatin before being immediately added to a 1% agarose pad containing 0.5 μg/mL sytox green (Invitrogen). One section of the agarose pad was then imaged every 5 minutes to monitor cell death. For studies of morphological changes in sub-lethal concentrations, culture was incubated with 0.25 μg/mL (−) or (+)-himastatin for 3 h at 37 C, before being combined with FM 4-64 and added to an agarose pad containing sytox green. Images were collected on a Zeiss AxioPlan2 upright microscope using phase-contrast and equipped with a Hamamatsu Orca-ER cooled CCD camera using standard filter sets for GFP (to visualize SYTOX green; excitation 470/40 nm and emission 525/50 nm), TxRED (to visualize FM 4-64; excitation 565/40 and emission 620/60 nm), and DIC (for phase-contrast). Additional imaged were collected with an RPI Spinning Disk Confocal microscope equipped with a Hamamatsu Orca-ER cooled CCD camera using standard filter sets for GFP (488 nm laser, emission 525/50 nm), RFP (561 nm laser, emission 605/70 nm), and brightfield.
B. subtilis (ATCC 6633) in Mueller Hinton broth (NMB) was used for all microscopy experiments. For time-course studies with natural himastatin at lethal concentration, a bacterial culture matching the optical density of McFarland standard 0.5 (1×10^8 cfu/mL) was supplemented with 1 μg/mL FM 4-64 before being combined with medium containing (−)- or (+)-himastatin (1) (2 μg/mL) immediately before imaging on a 1% agarose pad containing 0.5 μg/mL SYTOX Green (Invitrogen). One section of the agarose pad was then imaged every 5 min to monitor cell death. For studies of morphological changes in bacteria treated with sub-lethal concentrations, culture was incubated with 0.25 μg/mL (−)- or (+)-himastatin (1) for 3 h at 37° C., before being supplemented with 1 μg/mL FM 4-64 and added immediately to an agarose pad. […]

[9] = early investigation (ref. vii); cited from earlier work

In the case of `CC(C)C[C@@H]1NC(=O)[C@H]2C[C@@H](O)CNN2C(=O)[C@H](C(C)C)N(C)C(=O)[C@@H](C(C)C)NC(=O)[C@@H]2C[C@@]3(O)c4cc(-c5ccc6c(c5)[C@]5(O)C[C@H]7C(=O)N[C@H](C(C)C)C(=O)N(C)[C@@H](C(C)C)C(=O)N8NC[C@H](O)C[C@@H]8C(=O)N[C@@H](CC(C)C)C(=O)N[C@H]([C@H](C)O)C(=O)N7[C@@H]5N6)ccc4N[C@H]3N2C(=O)[C@@H]([C@H](C)O)NC1=O` [(−)-28, Himastatin N-Methyl Lactam Derivative], the “antibiotic activity (in words)” value [1] is reported as “decreasing antibiotic activity”, the “MIC (μg/mL) S. himastatinicus” value ([2]; ATCC 53653, 72 h) is reported as greater than 64 µg/mL and the “MIC (μg/mL) B. subtilis” value ([3]; ATCC 6633) is reported as greater than 64 µg/mL. For the same molecule, the “MIC (μg/mL) VRE faecalis” value ([4]; Vancomycin-Resistant (V583)) was greater than 64 µg/mL, the “MIC (μg/mL) MRSA” value ([5]; Methicillin-Resistant) was greater than 64 µg/mL and the “MIC (μg/mL) MSSA” value ([6]; Newman) was greater than 64 µg/mL. The “MIC (μg/mL) VSE faecalis” value ([7]; Vancomycin-Sensitive (T7)) was greater than 64 µg/mL.

In the case of `CC(C)C[C@H]1NC(=O)[C@@H]2C[C@H](O)CNN2C(=O)[C@@H](C(C)C)OC(=O)[C@H](C(C)C)NC(=O)[C@H]2C[C@]3(O)c4cc(-c5ccc6c(c5)[C@@]5(O)C[C@@H]7C(=O)N[C@@H](C(C)C)C(=O)O[C@H](C(C)C)C(=O)N8NC[C@@H](O)C[C@H]8C(=O)N[C@H](CC(C)C)C(=O)N[C@@H]([C@@H](C)O)C(=O)N7[C@H]5N6)ccc4N[C@@H]3N2C(=O)[C@H]([C@@H](C)O)NC1=O` [(+)-1, Ent-Himastatin], the “activity against the producing organism Streptomyces himastatinicus (in words)” value [2] is reported as “completely evade its own resistance mechanism and inhibit its growth”, the “MIC (μg/mL) S. himastatinicus” value ([2]; broth microdilution, Streptomyces himastatinicus (ATCC 53653), 72 h, n ≥ 2) is reported as 0.5 µg/mL (≈ 0.337 µM) and the “fold more active in inhibiting the growth of Streptomyces himastatinicus compared to (−)-himastatin (1)” value ([2]; relative to (−)-himastatin (1)) is reported as 4-8 fold. The “MIC (μg/mL) B. subtilis” value ([3]; broth microdilution, Bacillus subtilis (ATCC 6633), growth inhibition determined by eye, n ≥ 2) was 0.5 µg/mL (≈ 0.337 µM), the “MIC (μg/mL) VRE faecalis” value ([4]; broth microdilution, Vancomycin-Resistant Enterococcus faecalis (V583), n ≥ 2) was 2 µg/mL (≈ 1.35 µM) and the “MIC (μg/mL) MRSA” value ([5]; broth microdilution, Methicillin-Resistant Staphylococcus aureus, n ≥ 2) was 4 µg/mL (≈ 2.69 µM). For the same molecule, the “MIC (μg/mL) MSSA” value ([6]; broth microdilution, Methicillin-Sensitive S. aureus (Newman), n ≥ 2) was 2 µg/mL (≈ 1.35 µM), the “MIC (μg/mL) VSE faecalis” value ([7]; broth microdilution, Vancomycin-Sensitive E. faecalis (T7), n ≥ 2) was 1 µg/mL (≈ 0.673 µM) and the “membrane morphology (FM 4-64)” value ([8]; listed as (+)-ent-himastatin) was “identical”. The “membrane morphology (FM 4-64)” value ([8]; listed as ent-(+)-himastatin) was “visual membrane defects”.

In the case of `CC(C)C[C@@H]1NC(=O)[C@H]2C[C@@H](O)CNN2C(=O)[C@H](C(C)C)OC(=O)[C@@H](C(C)C)NC(=O)[C@@H]2C[C@@]3(O)c4cc(-c5ccc6c(c5)[C@]5(O)C[C@H]7C(=O)N[C@H](C(C)C)C(=O)O[C@@H](C(C)C)C(=O)N8NC[C@H](O)C[C@@H]8C(=O)N[C@@H](CC(C)C)C(=O)N[C@H]([C@H](C)O)C(=O)N7[C@@H]5N6)ccc4N[C@H]3N2C(=O)[C@@H]([C@H](C)O)NC1=O` [(−)-1, (−)-Himastatin, reference compound], the MIC values [1] is reported as 1 to 2 µg/mL, the “antibiotic activity (in words)” value [1] is reported as “potent antibiotic activity” and the “MIC in Bacillus subtilis” value ([3]; text and figure legend) is reported as 1 µg/mL (≈ 0.673 µM). The “membrane morphology (FM 4-64)” value [8] was “visual membrane defects” and the “antibiotic activity in the presence of sodium salts of phospholipids and fatty acids” value [9] was “reduced”.

From patent US12030888B2, “Himastatin derivatives, and processes of preparation thereof, and uses thereof” (priority 2021, dated 2024)
